# Source: article PMC8151276, “An Integrated Approach toward NanoBRET Tracers for Analysis of GPCR Ligand Engagement” (Molecules, 2021)
# Assays:
# Assay type in all cases: binding
# [1] = biological target: T1, SMO (Homo sapiens, UniProt Q99835); test: NanoBRET screen HiBiT-SMO in HEK293; details: SMO
# T1 construct: purchased Promega (in-house HiBiT-GPCR construct library, NanoBRET)
# Method: (§1) Each tracer candidate was screened across the entire library of HiBiT-GPCR constructs using NanoBRET as the detection modality. As depicted in Figure 4A, the specificity of interactions was evaluated through decrease in BRET due to competitive displacement of a bound tracer by excess parental compound. Each tracer was analyzed for binding to each HiBiT-GPCR fusion in the absence and in the presence of competing parental compound. Briefly, HEK293 cells were transfected with HiBiT-GPCR constructs diluted into promoterless DNA to reduce expression and maximize translocation to the cell surface. Each tracer candidate was then screened at concentrations of 1 μM and 0.1 μM across cells expressing these fusions. Cells were treated for 1.5 h with tracer either alone or in the presence of 20 μM competing parental compound (i.e., control). BRET was measured upon addition of purified LgBiT and subsequent complementation with HiBiT genetically fused to a GPCR. The specificity of interactions was assessed through a decrease in BRET signal due to competitive displacement of the bound tracer. To further gauge the robustness of these interactions, the fold response over the control (i.e., BRETtracer/BRETcontrol) was calculated. We chose a 1.5-fold response, which translates to ≥7-fold signal over noise as the minimal threshold required to score an interaction as positive. […]. Below we highlight the screening results obtained for our exemplary fluorescent tracers based on Clozapine, Amitriptyline and AZD1283.
# (§2) HiBiT-GPCR DNA constructs were diluted in 10 mM Tris pH 8 to a final concentration of 0.01 μg/μL, arrayed in 96-well plates and stored at −20 °C. For transfection, HEK293 cells were suspended in Opti-MEM (without phenol red) supplemented with 2% fetal bovine serum (Seradigm) and 100 units/mL penicillin–streptomycin (Gibco) at a final concentration of 220,000 cells/mL and dispensed into white 96-well plates at 90 μL/well. Subsequent transfections and screens were carried using an Agilent Bravo Automated Liquid Handling Platform. First, the 96-well HiBiT DNA arrays were diluted 25-fold in Opti-MEM (without serum or phenol red) to a final concentration of 0.0004 μg/μL and 20 μL of the diluted DNAs were transferred into new 96-well plates. Next, promoterless carrier DNA (1 μg/μL) was diluted 25-fold (0.04 μg/μL) and then dispensed into the diluted arrays at 20 μL/well. Following brief mixing, Viafect transfection reagent (Promega) diluted 16-fold into Opti-MEM was dispensed into the plates at 40 μL/well. After mixing by pipetting, plates were incubated for 10 min on the pipetting station deck. The DNA-transfection reagent complexes were then added to plates containing cells. To facilitate the screen, 10 μL of DNA-transfection reagent complexes were added in duplicates to the top 4 and bottom 4 rows, resulting in two identical 48-well arrays per plate. Plates with transfected cells were incubated for 18–20 h at 37 °C/5% CO2. A screen of each tracer across the entire library using two different concentrations requires duplicate plates of transfected cells. Depending on the number of tracers being screened, transfections can be scaled up using the same ratios. The next day, for each tracer, four 20× screening solutions in tracer dilution buffer (Promega) were prepared: two duplicates at final concentration of 20 μM and two duplicates at a final concentration of 2 μM. A competing unmodified compound was added to one of each duplicate at a final concentration of 400 μM. The four resulting solutions were diluted 4-fold in Opti-MEM without serum or phenol red to generate 5× solutions (5 µM and 0.5 µM tracer +/− 100 μM competing compound). To screen the library, a BioTek MultiFlo FX liquid dispenser was used to dispense 22.5 µL of tracer solution to the top 4 rows and 22.5 µL tracer + competing compound solution to the 4 bottom rows. Plates were briefly mixed on an orbital shaker and incubated for 1.5 h at room temperature. […]
# [2] = biological target: T2, FZD1 (Homo sapiens, UniProt Q9UP38); test: NanoBRET screen HiBiT-FZD1 in HEK293; details: FZD1
# T2 construct: purchased Promega (in-house HiBiT-GPCR construct library, NanoBRET)
# Method: as §1, §2
# [3] = biological target: T3, SSTR3 (Homo sapiens, UniProt P32745); test: NanoBRET screen HiBiT-SSTR3 in HEK293; details: SSTR3
# T3 construct: purchased Promega (in-house HiBiT-GPCR construct library, NanoBRET)
# Method: as §1, §2
# [4] = biological target: T4, FSHR (Homo sapiens, UniProt P23945); test: NanoBRET screen HiBiT-FSHR in HEK293; details: FSHR
# T4 construct: purchased Promega (in-house HiBiT-GPCR construct library, NanoBRET)
# T4 sequence (P23945 18-695): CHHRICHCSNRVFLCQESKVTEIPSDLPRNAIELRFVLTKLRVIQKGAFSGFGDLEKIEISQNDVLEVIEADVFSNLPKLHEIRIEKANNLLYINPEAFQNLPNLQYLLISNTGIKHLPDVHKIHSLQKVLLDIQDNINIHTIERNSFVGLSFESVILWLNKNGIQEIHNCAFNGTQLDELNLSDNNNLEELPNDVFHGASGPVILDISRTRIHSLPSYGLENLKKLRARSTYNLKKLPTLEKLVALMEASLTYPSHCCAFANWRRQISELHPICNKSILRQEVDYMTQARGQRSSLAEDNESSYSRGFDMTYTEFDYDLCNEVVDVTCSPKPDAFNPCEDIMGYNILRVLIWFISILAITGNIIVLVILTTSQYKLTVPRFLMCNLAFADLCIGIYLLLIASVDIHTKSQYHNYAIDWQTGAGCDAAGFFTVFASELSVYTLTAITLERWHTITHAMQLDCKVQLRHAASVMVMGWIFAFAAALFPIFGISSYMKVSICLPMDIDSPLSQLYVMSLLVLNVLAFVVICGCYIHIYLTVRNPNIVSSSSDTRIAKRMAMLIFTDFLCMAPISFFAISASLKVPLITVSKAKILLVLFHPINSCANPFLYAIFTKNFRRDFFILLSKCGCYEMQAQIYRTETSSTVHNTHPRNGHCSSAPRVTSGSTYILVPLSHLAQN
# Method: as §1, §2
# [5] = biological target: T5, F2RL1 (Homo sapiens, UniProt P55085); test: NanoBRET screen HiBiT-F2RL1 in HEK293; details: F2RL1
# T5 construct: purchased Promega (in-house HiBiT-GPCR construct library, NanoBRET)
# T5 sequence (P55085 26-397): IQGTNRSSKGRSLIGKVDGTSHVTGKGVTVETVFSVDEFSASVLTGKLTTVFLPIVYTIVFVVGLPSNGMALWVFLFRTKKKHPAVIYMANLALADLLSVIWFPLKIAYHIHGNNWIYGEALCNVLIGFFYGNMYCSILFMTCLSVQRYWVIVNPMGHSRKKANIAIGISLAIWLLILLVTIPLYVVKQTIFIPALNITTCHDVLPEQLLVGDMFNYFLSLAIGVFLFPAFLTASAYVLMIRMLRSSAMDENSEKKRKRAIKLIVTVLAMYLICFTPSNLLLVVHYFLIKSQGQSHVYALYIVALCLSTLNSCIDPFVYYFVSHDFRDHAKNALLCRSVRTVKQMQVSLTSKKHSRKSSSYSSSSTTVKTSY
# Method: as §1, §2
# [6] = biological target: T6, MLNR (Homo sapiens, UniProt O43193); test: NanoBRET screen HiBiT-MLNR in HEK293; details: MLNR
# T6 construct: purchased Promega (in-house HiBiT-GPCR construct library, NanoBRET)
# Method: as §1, §2
# T6 sequence (O43193 whole entry): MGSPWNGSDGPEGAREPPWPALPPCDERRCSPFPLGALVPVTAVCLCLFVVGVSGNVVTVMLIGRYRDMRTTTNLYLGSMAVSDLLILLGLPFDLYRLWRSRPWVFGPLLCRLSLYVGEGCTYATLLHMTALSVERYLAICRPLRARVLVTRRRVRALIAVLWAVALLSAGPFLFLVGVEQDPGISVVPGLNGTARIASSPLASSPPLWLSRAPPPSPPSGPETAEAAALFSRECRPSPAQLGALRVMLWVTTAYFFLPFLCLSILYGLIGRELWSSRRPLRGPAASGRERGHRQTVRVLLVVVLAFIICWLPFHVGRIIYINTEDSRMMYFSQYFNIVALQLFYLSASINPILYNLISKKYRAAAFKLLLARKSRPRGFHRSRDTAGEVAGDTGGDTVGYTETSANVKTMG
# T2 sequence (Q9UP38 70-647): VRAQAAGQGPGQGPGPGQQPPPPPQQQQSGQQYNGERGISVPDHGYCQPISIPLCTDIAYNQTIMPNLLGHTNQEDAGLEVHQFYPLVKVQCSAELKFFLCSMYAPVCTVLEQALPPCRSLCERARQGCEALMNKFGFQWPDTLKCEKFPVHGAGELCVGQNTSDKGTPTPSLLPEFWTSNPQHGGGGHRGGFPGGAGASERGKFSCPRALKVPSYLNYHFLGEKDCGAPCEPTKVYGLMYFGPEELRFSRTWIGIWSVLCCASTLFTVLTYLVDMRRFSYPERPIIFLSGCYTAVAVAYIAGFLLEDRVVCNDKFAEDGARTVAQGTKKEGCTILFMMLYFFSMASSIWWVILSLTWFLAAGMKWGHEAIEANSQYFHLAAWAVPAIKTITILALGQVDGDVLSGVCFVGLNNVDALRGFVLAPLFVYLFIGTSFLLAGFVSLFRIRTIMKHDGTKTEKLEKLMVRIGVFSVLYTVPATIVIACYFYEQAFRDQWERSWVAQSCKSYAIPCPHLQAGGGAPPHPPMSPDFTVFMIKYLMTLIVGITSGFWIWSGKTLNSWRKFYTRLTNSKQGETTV
# T3 sequence (P32745 whole entry): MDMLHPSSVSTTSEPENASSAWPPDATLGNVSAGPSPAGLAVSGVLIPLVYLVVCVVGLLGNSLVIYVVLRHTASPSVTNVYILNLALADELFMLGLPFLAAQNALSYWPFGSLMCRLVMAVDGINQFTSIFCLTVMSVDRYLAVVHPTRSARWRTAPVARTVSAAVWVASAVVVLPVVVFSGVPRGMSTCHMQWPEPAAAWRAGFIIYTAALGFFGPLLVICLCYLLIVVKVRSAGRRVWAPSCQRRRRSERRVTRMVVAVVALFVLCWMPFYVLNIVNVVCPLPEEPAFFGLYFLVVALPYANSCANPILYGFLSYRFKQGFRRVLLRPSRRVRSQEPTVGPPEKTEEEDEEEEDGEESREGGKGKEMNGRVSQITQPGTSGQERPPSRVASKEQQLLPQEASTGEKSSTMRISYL
# T1 sequence (Q99835 28-787): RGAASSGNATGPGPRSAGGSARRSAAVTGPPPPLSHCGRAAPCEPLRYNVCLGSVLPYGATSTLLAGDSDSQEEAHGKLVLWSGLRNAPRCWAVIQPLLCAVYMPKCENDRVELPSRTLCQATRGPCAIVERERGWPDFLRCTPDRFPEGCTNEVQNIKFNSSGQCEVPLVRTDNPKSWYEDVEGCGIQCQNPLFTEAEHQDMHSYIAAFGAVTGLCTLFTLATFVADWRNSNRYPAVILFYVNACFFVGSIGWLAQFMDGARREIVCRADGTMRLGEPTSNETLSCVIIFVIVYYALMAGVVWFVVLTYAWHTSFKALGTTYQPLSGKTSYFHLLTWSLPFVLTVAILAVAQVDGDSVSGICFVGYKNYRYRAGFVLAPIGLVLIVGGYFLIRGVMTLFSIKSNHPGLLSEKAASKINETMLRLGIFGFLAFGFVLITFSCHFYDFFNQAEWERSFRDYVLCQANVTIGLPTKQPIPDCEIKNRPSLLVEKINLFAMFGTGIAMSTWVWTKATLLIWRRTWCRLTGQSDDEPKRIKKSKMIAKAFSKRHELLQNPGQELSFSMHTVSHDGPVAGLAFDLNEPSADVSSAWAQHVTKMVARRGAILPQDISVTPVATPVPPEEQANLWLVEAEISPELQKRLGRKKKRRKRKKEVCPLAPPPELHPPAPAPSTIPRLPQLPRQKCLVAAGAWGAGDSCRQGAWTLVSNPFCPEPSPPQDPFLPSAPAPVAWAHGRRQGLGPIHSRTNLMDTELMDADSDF
Compound,NanoBRET Fold Response ([1]; tracer 0.1μM),NanoBRET Fold Response ([1]; tracer 1μM),NanoBRET Fold Response ([2]; tracer 0.1μM),NanoBRET Fold Response ([2]; tracer 1μM),NanoBRET Fold Response ([3]; tracer 0.1μM),NanoBRET Fold Response ([3]; tracer 1μM),NanoBRET Fold Response ([4]; tracer 0.1μM),NanoBRET Fold Response ([4]; tracer 1μM),NanoBRET Fold Response ([5]; tracer 0.1μM),NanoBRET Fold Response ([5]; tracer 1μM),NanoBRET Fold Response ([6]; tracer 0.1μM),NanoBRET Fold Response ([6]; tracer 1μM),further results
CN1CCN(C2=Nc3cc(Cl)ccc3Nc3ccc(CNC(=O)CCOCCOCCOCCOCCNC(=O)CCc4ccc5n4[B-](F)(F)[N+]4=C(c6ccc[nH]6)C=CC4=C5)cc32)CC1 [Clozapine-b-2-NB590],–,–,–,–,–,–,–,–,–,–,–,–,NanoBRET Fold Response ([1]; 0.1μM tracer): 1.13; NanoBRET Fold Response ([1]; 1μM tracer): 0.80; NanoBRET Fold Response ([2]; 0.1μM tracer): 1.00; NanoBRET Fold Response ([2]; 1μM tracer): 0.99; NanoBRET Fold Response ([3]; 0.1μM tracer): 0.99; NanoBRET Fold Response ([3]; 1μM tracer): 1.02; NanoBRET Fold Response ([4]; 0.1μM tracer): 1.01; NanoBRET Fold Response ([4]; 1μM tracer): 1.05; NanoBRET Fold Response ([5]; 0.1μM tracer): 1.00; NanoBRET Fold Response ([5]; 1μM tracer): 1.06; NanoBRET Fold Response ([6]; 0.1μM tracer): 1.02; NanoBRET Fold Response ([6]; 1μM tracer): 1.41
CN1CCN(C2=Nc3cc(Cl)ccc3N(CC(=O)NCCOCCOCCOCCOCCNC(=O)CCc3ccc4n3[B-](F)(F)[N+]3=C(c5ccc[nH]5)C=CC3=C4)c3ccccc32)CC1 [Clozapine-c-2-NB590],–,–,–,–,–,–,–,–,–,–,–,–,NanoBRET Fold Response ([1]; 0.1μM tracer): 0.97; NanoBRET Fold Response ([1]; 1μM tracer): 1.09; NanoBRET Fold Response ([2]; 0.1μM tracer): 1.02; NanoBRET Fold Response ([2]; 1μM tracer): 1.06; NanoBRET Fold Response ([3]; 0.1μM tracer): 0.95; NanoBRET Fold Response ([3]; 1μM tracer): 1.02; NanoBRET Fold Response ([4]; 0.1μM tracer): 1.02; NanoBRET Fold Response ([4]; 1μM tracer): 1.05; NanoBRET Fold Response ([5]; 0.1μM tracer): 0.97; NanoBRET Fold Response ([5]; 1μM tracer): 1.00; NanoBRET Fold Response ([6]; 0.1μM tracer): 0.66; NanoBRET Fold Response ([6]; 1μM tracer): 1.14
O=C(CCOCCOCCOCCOCCNC(=O)CCc1ccc2n1[B-](F)(F)[N+]1=C(c3ccc[nH]3)C=CC1=C2)NCCCN1CCN(C2=Nc3ccccc3Oc3ccc(Cl)cc32)CC1 [Loxapine-a-2-NB590],0.98,1.15,1.17,1.03,1.01,1.25,0.98,1.16,1.12,1.14,1.20,1.16,–
COc1ccccc1N1CCN(CCCCN2C(=O)c3ccc(CNC(=O)CCOCCOCCOCCOCCNC(=O)CCc4ccc5n4[B-](F)(F)[N+]4=C(c6ccc[nH]6)C=CC4=C5)cc3C2=O)CC1 [NAN-190-2-NB590],1.11,1.11,0.99,1.06,1.00,1.05,0.97,0.97,0.96,0.98,0.67,–,–
COc1ccccc1N1CCN(CCCCN2C(=O)c3ccc(CNC(=O)CCOCCNC(=O)c4ccc(CNC(=O)CCc5ccc6n5[B-](F)(F)[N+]5=C(c7ccc[nH]7)C=CC5=C6)cc4)cc3C2=O)CC1 [NAN-190-3-NB590],0.88,0.97,0.83,1.01,1.07,0.93,0.88,1.12,0.96,1.08,1.32,0.66,–
O=C(CCc1ccc2n1[B-](F)(F)[N+]1=C(c3ccc[nH]3)C=CC1=C2)NCc1ccc(C(=O)NCCOCCC(=O)N[C@@H]2CC[C@@]3(O)[C@H]4Cc5ccc(O)c6c5[C@@]3(CCN4CC3CC3)[C@H]2O6)cc1 [Naltrexone-3-NB590],0.58,0.55,1.07,1.05,0.97,1.01,0.98,1.07,0.79,0.91,1.44,0.69,–
Cc1cc2c(s1)Nc1ccccc1N=C2N1CCN(CCCNC(=O)CCOCCOCCOCCOCCNC(=O)CCc2ccc3n2[B-](F)(F)[N+]2=C(c4ccc[nH]4)C=CC2=C3)CC1 [Olanzapine-a-2-NB590],1.12,0.82,0.95,1.04,0.99,1.04,1.10,0.99,1.04,0.96,1.27,1.15,–
O=C(CCc1ccc2n1[B-](F)(F)[N+]1=C(c3ccc[nH]3)C=CC1=C2)NCc1ccc(C(=O)NCCOCCOCCNCC(O)COc2cccc3ccccc23)cc1 (centres unmarked) [Propranolol-3-NB590],–,–,–,–,–,–,–,–,–,–,–,–,NanoBRET Fold Response ([1]; 0.1μM): 1.16; NanoBRET Fold Response ([1]; 1μM): 1.07; NanoBRET Fold Response ([2]; 0.1μM): 0.97; NanoBRET Fold Response ([2]; 1μM): 0.98; NanoBRET Fold Response ([3]; 0.1μM): 0.99; NanoBRET Fold Response ([3]; 1μM): 1.01; NanoBRET Fold Response ([4]; 0.1μM): 0.98; NanoBRET Fold Response ([4]; 1μM): 1.04; NanoBRET Fold Response ([5]; 0.1μM): 1.05; NanoBRET Fold Response ([5]; 1μM): 1.07; NanoBRET Fold Response ([6]; 0.1μM): 1.01; NanoBRET Fold Response ([6]; 1μM): 1.02
